Results taken from US8372955B2, “Purified antibody to the extracellular domain of NKp44L” (Assistance Publique Hopitaux de Paris, priority 2003, dated 2013).

Assays:
purified CD4+ T cells [1] = test: NK lysis sensitivity of treated CD4+ T cells, 4-h 51Cr-release assay with activated autologous purified NK cells; format: cell-based, human; conditions: 6-mers peptide, preliminary experiment
Description: NK lines were generated from PBMC, and then purified using the StemSep cell separation system and the NK cell enrichment antibody cocktail (StemCell technologies). NK purified cells were cultured in MyeloCult H5100 medium (StemCell technologies) supplemented with 100 units rhIL-2 (Boheringer). The purity of these preparations was evaluated by flow cytometry after staining with anti-CD3 (BD), anti-CD56 (BD), anti-NKp44, and anti-NKp46 mAbs.
The cytololytic activity was assayed in 4-h ^51Cr-release assay as previously described. Briefly, the target cells were labeled for 2-h at 37° C. with 100 μCi per 10^6 cells Na^51Cr (Amersham), and washed twice with culture medium. The target cells were then distributed in round-bottomed 96-well microtiter plates (4×10^3 cells per well), and the effector cells were added at several E/T ratio. The plates were incubated 4-h at 37° C. The supernatant were then collected and ^51Cr-release was measured in a gamma counted. In experiments in which Abs were included, these were added to final concentration of 20 μg/ml. The relative specific ^51Cr-release was calculated as previously described. Values for spontaneous ^51Cr-release, which are deducted in the calculation, were between 10 and 20% of the total incorporated radioactivity. The results are presented after subtraction of the nonspecific lysis obtained with control targets. […]

purified CD4+ T cells [2] = format: cell-based, human; conditions: 6-mers peptide, preliminary experiment

Question: How did the NK cytotoxic activity (purified CD4+ T cells [1]) turn out when “H-SWSNKS-OH [NH2-SWSNKS—COOH, NH2-SWSNKS—COOH (SEQ ID NO: 7)]” was run?
Answer: any increased

Question: And the “Cell surface expression of NKp44L” value (purified CD4+ T cells [2])?
Answer: any increased
